Patent US9073858B2, “Methods of targeted drug development” (priority 2010, dated 2015)
Read-outs that look alike come from different tables or passages of the source.

Key:
[1] = target: T1, EGFR (Homo sapiens, UniProt P00533); assay: EGFR in-cell Western (ICW) screening protocol; assay type: cell-based; parameters: unit not given here; conditions: for ICW Screen: initial screen
T1 construct: endogenous in cells; host or cells: A431 cells (ATCC CRL-1555)
Method: The following example describes general EGFR in-cell Western (ICW) screening protocol.
Two cell plates were prepared for each compound plate.
Serum Starvation: The cells were serum starved prior to compound addition. […] The cell plates were incubated at 37° C./5% CO2 for 2 hours.
Prepared compound plates were stored at RT prior to use and at 4° C. long term.
Compound Dilution Plate Preparation: 250 μl of DMEM supplemented with 1 mg/ml BSA (Sigma A3059-10G) was added to the appropriate wells of a 96 well plate to prepare the compound dilution plates. Using a multichannel pipettor, 1.25 μl of compound from the compound plate was transferred into the compound dilution plate.
Compound Addition: The starve media was removed from the cell plates by aspiration. Using a multichannel pipettor, the compound dilution plates were mixed by pipetting up and down three times. 50 μl of mixed, diluted compound was added to each of two rows/columns on each of two cell plates. The cell plates with compound were incubated at 37° C./5% CO2 for 4 hours.
50 μl of 20 or 0 ng/ml EGF was added to the appropriate wells without the removal of compound. The compound and EGF were mixed by pipetting up and down three times.
The plates were incubated at RT for 20 min without shaking. The Fixation Solution was removed by aspiration and the plates washed four times with 200 μl each of Triton Wash Solution (1×PBS, Sigma P3813-10PK, and 0.1% Triton X-100, T8787-50ML) for 5 min with gentle shaking.
The block was removed by aspiration and 50 μl of diluted primary Ab mix was added. The plates were incubated at 4° C. overnight with gentle shaking. The plates were washed five times with 200 μl of PBST (1×PBS, Sigma P3813-10PK, and 0.1% Tween-20, Sigma P9416-50ML) for 5 min each with shaking. 50 μl of diluted secondary Ab mix was added and the plates incubated at RT for 1 h with shaking. The plates were washed 5× with 200 μl of PBST for 5 min each with shaking. One final wash with 200 μl of PBS (Sigma P3813-10PK) for 5 min with shaking was performed prior to scanning.
In some screening assays, the dilution of the secondary Ab conjugates was 1/800 rather than 1/1200.
Plate Scanning: The plates were scanned on an Odyssey Infrared Imaging System from LI-COR Biosciences. The focus offset was set at 3.5 mm and the scanning intensity set at 3 for the 700 channel and 7 for the 800 channel.
Data Analysis: The % of Maximum and % Inhibition values were calculated as follows. 700 Channel=signal for total EGFR (used to control for variation in cell number). 800 Channel=signal for phosphorylated EGFR. 800−EGF=basal level EGFR phosporylation+non-specific signal (no compound). 800+EGF=800−EGF+EGF dependent EGFR receptor phosphorylation (no compound). 700/800com=700 or 800 channel signals with compound. % Maximum={[(800com/700com)−(800−EGF/700−EGF)]/[(800+EGF/700+EGF)−(800−EGF/700−EGF)]}×100%. % Inhibition=100%−(% Maximum).

[2] = system: epithelial carcinoma A431 cell line; assay: MTT Cell Proliferation Assay, A431 cell line; assay type: cell-based; conditions: for MTT-72 h A431/MDBK (ratio) / MTT (10 Point follow-up) ratio: value in brackets; for MTT-72 h A431/MDBK (ratio): numerically MDBK value over A431 value; for MTT (10 Point follow-up) ratio: numerically MDBK over A431
Excerpt: (§1) The following example describes the MTT Cell Proliferation Assay.
(§2) The MTT Cell Proliferation Assay is a colorimetric assay system that measures the reduction of the tetrazolium salt MTT (3-(4,5-dimethylthiazol-2-yl)-2,5-diphenyltetrazolium bromide) into insoluble formazan crystals, produced by the mitochondria of viable cells. […] The color can then be quantified by spectrophotometric means. Among the applications for the method are drug sensitivity, cytotoxicity, response to growth factors, and cell activation. The reduction of tetrazolium salts is now recognized as a safe, accurate alternative to radiometric testing.
(§3) Two replicates on each cell plate and 2 duplicate plates gave 4 individual replicates of each concentration, in each cell line. Concentrations were diluted in 100% DMSO from 25 mM stocks.
(§4) Twelve 96 well plates of each cell line were plated. Plating was done by dislodging cells as in passage protocol, counting on a hemocytometer, re-suspending in standard growth media, and plating using a multichannel pippetor.
(§5) 16 μl of 25 mM stock+34 μl DMSO=8 mM starting concentrations, and serial diluted as with test compounds in same plate. […] Two replicates of each concentrations was run on each cell plate. All compound addition and cell treatments were done using aseptic technique under a laminar flow aseptic hood.
(§6) Control: 0.5% DMSO in treatment media was used as the control.
(§7) MTT dye (Thiazolyl Blue Tetrazolium Bromide, Sigma cat # M5655) stock was prepared in bulk and stored at 4° C. for use: 5 mgs/ml sterile PDS, shielded from light. 4 ul of this stock per 100 uls treatment media per well was used.
(§8) Plates were incubated overnight prior to treatment, with treatment day=Day 0. Compound treatments were prepared prior to washing cells to minimize time cells were dry at room temperature after final aspiration. Compounds were diluted in 100% DMSO in 96 well polypropylene plates:40 μl 25 mM stock+10 μl DMSO=20 mM; 20 μl of 20 mM+30 μl DMSO=8 mM; 20 μl of 8 mM+30 μl DMSO=3.2 mM; 20 μl of 3.2 mM+30 μl DMSO=1.3 mM; 20 μl of 1.3 mM+30 μl DMSO=0.51 mM.
(§9) 5.0 μl/ml were added to treatment media, in sterile, 2.2 ml deep well plates=0.5% dmso final. Ten μl of each dmso concentration was added to 2.0 ml of treatment media and then mixed using a 1200 μl multichannel pipettor. Cell plates were treated from the deep well plates. Treatment media was standard growth media containing 0.5% FBS and standard additions. This reduced FBS concentration allowed for a slower growth rate in cells.
(§10) Media was aspirated from cell plates, and washed with 200 μl/well sterile PBS. Aspirated PBS wash, and cell plates were treated with 200 μl of compound/treatment media per well, and incubated at 37° C., 5% CO2 for 3 days.
(§11) Prior to harvesting, visual observations were made under an inverted microscope. Plates were harvested by: aspirating the growth media; adding back MTT dye/100 μl treatment media; and incubating plates at 37° C. for 1 hour. MTT dye was aspirated. 100 μl/well dmso was added, and then shaken on a Bellco plate shaker for 5 minutes, at 4.5 setting.
(§12) Plates were read in a Tecan Sunrize UV plate reader, at 560 nm. Settings: Read mode, Outside Normal 2 sec; Shake settle time 3 sec. Data is reported as % inhibition, calculated for individual plates using control values from that plate.

[3] = system: MDBK line; assay: MTT Cell Proliferation Assay, MDBK line; assay type: cell-based, bovine
Excerpt: as §1, §2, §3, §4, §5, §6, §7, §8, §9, §10, §11, §12

[4] = Homo sapiens, A-431, 72 h, 72 h, first value of A431/MDBK pair, read-out: MTT-72 h A431
[5] = Bos taurus, MDBK, 72 h, second value of A431/MDBK pair, read-out: MTT-72 h MDBK
[6] = Homo sapiens, A-431, 10 point follow-up, first value of pair, read-out: MTT (10 Point follow-up) A431
[7] = Bos taurus, MDBK, 10 point follow-up, second value of pair, read-out: MTT (10 Point follow-up) MDBK

T1 sequence (P00533 25-1210): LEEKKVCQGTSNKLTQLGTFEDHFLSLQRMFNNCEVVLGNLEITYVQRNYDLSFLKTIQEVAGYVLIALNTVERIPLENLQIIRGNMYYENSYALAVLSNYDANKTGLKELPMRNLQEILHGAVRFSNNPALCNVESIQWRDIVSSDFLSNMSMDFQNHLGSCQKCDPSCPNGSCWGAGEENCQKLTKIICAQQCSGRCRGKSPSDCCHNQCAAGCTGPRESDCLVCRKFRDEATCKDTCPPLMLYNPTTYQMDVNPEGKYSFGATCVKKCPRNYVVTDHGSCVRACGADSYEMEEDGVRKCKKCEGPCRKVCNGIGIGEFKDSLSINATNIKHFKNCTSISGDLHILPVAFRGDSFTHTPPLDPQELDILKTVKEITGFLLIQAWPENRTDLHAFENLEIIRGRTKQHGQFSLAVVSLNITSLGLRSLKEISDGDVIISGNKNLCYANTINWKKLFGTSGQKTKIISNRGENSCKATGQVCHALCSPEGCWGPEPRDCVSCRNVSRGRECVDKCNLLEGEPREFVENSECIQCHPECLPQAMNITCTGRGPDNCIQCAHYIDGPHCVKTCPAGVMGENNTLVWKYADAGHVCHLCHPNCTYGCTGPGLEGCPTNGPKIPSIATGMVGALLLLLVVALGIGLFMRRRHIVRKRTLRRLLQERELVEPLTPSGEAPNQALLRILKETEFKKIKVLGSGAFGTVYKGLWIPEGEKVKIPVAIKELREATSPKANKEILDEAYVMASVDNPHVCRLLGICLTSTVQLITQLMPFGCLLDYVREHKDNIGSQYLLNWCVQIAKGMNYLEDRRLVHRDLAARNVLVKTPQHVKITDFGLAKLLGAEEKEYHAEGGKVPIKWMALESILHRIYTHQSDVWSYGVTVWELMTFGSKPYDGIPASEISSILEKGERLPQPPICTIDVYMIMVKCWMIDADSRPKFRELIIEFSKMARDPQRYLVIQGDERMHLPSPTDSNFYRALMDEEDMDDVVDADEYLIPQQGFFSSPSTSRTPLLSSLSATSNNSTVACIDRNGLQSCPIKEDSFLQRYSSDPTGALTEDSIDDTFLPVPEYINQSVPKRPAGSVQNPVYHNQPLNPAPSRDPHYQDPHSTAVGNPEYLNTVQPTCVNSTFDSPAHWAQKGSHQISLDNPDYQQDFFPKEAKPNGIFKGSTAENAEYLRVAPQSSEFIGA

Row | SMILES | ICW Screen [1] | ICW Re-Test [1] | MTT-72 h A431/MDBK (ratio) ([2]; 72 h) | IC50 [2, 4] | IC50 [3, 5] | IC50 [2, 6] | IC50 [3, 7] | MTT (10 Point follow-up) ratio ([2]; 10 point follow-up) | IC50 ([2]; 72 h, first value of A431/MDBK pair, read-out: MTT-72 h A431) | IC50 ([2]; 10 point follow-up, first value of pair, read-out: MTT (10 Point follow-up) A431) | IC50 ([3]; 10 point follow-up, second value of pair, read-out: MTT (10 Point follow-up) MDBK)
1 | Cc1ccc(NC(c2ccccc2)c2ccc3cccnc3c2O)cc1 (centres unmarked) [compound 10664] | 64.09 | 69.21 | 1.12 | 1.92 µM | 2.14 µM |  |  |  |  |  | 
2 | O=[N+]([O-])c1cccc(NC(c2ccco2)c2ccc3cccnc3c2O)c1 (centres unmarked) [compound 11056] | 32.48 | 18.32 | 0.94 | 6.35 µM | 5.94 µM |  |  |  |  |  | 
3 | CN1CCN(C(c2ccccn2)c2ccc3cccnc3c2O)CC1 (centres unmarked) [compound 10548] | 31.03 |  | 0.89 | 9.05 µM | 8.07 µM |  |  |  |  |  | 
4 | Cc1ccc(C)c(C(Nc2cccnc2)c2cc(Cl)c3cccnc3c2O)c1 (centres unmarked) [compound 10944] | 68.22 | 67.75 |  | 2.03 µM | 2.96 µM | 1.86 µM | 2.73 µM |  |  |  | 
5 | Oc1cccnc1NC(c1ccccc1F)c1ccc2cccnc2c1O (centres unmarked) [compound 10512] | 12.86 |  |  |  |  | 0.517 µM | 0.991 µM | 1.92 |  |  | 
6 | Cc1cccc(NC(c2ccc(O)cc2)c2ccc3ccc(C)nc3c2O)n1 (centres unmarked) [compound 10037] | 32.12 |  | 0.42 | 43 µM | 18.2 µM |  |  |  |  |  | 
7 | Cc1cccc(NC(c2ccc(Cl)cc2)c2ccc3cccnc3c2O)n1 (centres unmarked) [compound 10058] | 28.52 |  | 1.13 | 5.14 µM | 5.83 µM | 1.08 µM | 1.68 µM | 1.56 |  |  | 
8 | Oc1c(C(Nc2cccnc2)c2cccs2)ccc2cccnc12 (centres unmarked) [compound 10315] | 80.77 | 92.46 | 1.26 | 4.52 µM | 5.69 µM | 0.697 µM | 0.783 µM | 1.12 |  |  | 
9 | COc1ccc(C(Nc2ccccn2)c2ccc3ccc(C)nc3c2O)cc1OC (centres unmarked) [compound 10006] | 35.13 | 45.57 | 1.37 | 11 µM | 15.1 µM |  |  |  |  |  | 
10 | Oc1c(C(Nc2ccccn2)c2cccc(Cl)c2)cc(Cl)c2cccnc12 (centres unmarked) [compound 10097] | 28.02 |  | 0.98 | 6.23 µM | 6.09 µM | 1.25 µM | 2.07 µM | 1.66 |  |  | 
11 | Cc1cccc(NC(c2ccc3c(c2)OCO3)c2ccc3cccnc3c2O)n1 (centres unmarked) [compound 10487] | 33.14 |  | 0.96 |  | 5.28 µM | 1.33 µM | 0.963 µM | 0.72 | 5.51 µM |  | 
12 | Oc1c(C(Nc2ccccn2)c2cccc(F)c2)cc(Cl)c2cccnc12 (centres unmarked) [compound 10090] | 21.53 |  | 1.06 | 5.28 µM | 5.62 µM | 1.76 µM | 2.6 µM | 1.48 |  |  | 
13 | COc1ccc(C(NC(=O)c2cccnc2)c2cc(Cl)c3cccnc3c2O)cc1OC (centres unmarked) [compound 10969] | 30.17 | 73.15 |  |  |  | 0.51 µM | 0.52 µM | 1.02 |  |  | 
14 | Cc1ccnc(NC(c2ccc3c(c2)OCO3)c2ccc3cccnc3c2O)c1 (centres unmarked) [compound 10038] | 28.31 |  | 0.94 | 5.75 µM | 5.42 µM |  |  |  |  |  | 
15 | COc1ccc(C(Nc2cc(C)ccn2)c2ccc3cccnc3c2O)cc1OC (centres unmarked) [compound 1969] | 29.61 | 39.58 | 0.90 | 15 µM | 13.6 µM |  |  |  |  |  | 
16 | Cc1ccc2ccc(C(Nc3ccccn3)c3ccc(F)cc3)c(O)c2n1 (centres unmarked) [compound 10045] | 27.22 |  | 0.73 | 13.5 µM | 9.85 µM |  |  |  |  |  | 
17 | Oc1c(C(Nc2ccccn2)c2ccccn2)cc(Cl)c2cccnc12 (centres unmarked) [compound 10954] | 31.09 |  | 1.33 | 1.72 µM | 2.29 µM | 1.62 µM | 2.17 µM | 1.26 |  |  | 
18 | Cc1cccc(NC(c2ccccc2C)c2ccc3ccc(C)nc3c2O)n1 (centres unmarked) [compound 10026] | 37.03 | 41.06 | 0.97 | 5.22 µM | 5.19 µM |  |  |  |  |  | 
19 | O=[N+]([O-])c1cccc(C(Nc2cccnc2)c2cc(Cl)c3cccnc3c2O)c1 (centres unmarked) [compound 10947] | 42.78 | 42.98 | 0.52 | 5.15 µM | 2.66 µM |  |  |  |  |  | 
20 | Oc1c(C(Nc2ccccn2)c2ccc(Cl)cc2Cl)ccc2cccnc12 (centres unmarked) [compound 10046] | 12.78 |  |  |  |  |  |  | 1.87 |  | 1.66 µM | 3.1 µM
21 | Oc1c(C(Nc2ccccc2)c2ccccn2)ccc2cccnc12 (centres unmarked) [compound 11018] | 25.31 | 21.62 | 0.89 | 9.11 µM | 8.1 µM |  |  |  |  |  | 
